The values below come from patent publication US12528837B2, “Aryl substituted polymyxin derivatives” (priority 2018, dated 2026).

The subject of one data set is HK-2 cells. Description: In vitro renal cell toxicity assay (HK-2). It is filed as cell-based. As to conditions: IC50 relative to PMB in the same experiment, 24 h. As for the experimental part:
The in vitro renal cell toxicity assay was performed according to the following protocol. […] Cells were seeded at 7,500 cells per well in 96-well plates and allowed to adhere overnight. […] Water and DMSO levels were kept constant at 5% and 0.5% respectively. The test compounds were incubated with cells for 24 h at 37° C. 5% CO2 in a humidified atmosphere. […] Media only background values were subtracted before the data was analysed using GraphPad Prism. Individual values were normalised to the vehicle control wells for each compound. Compound concentration values were plotted as log values to enable a dose-response curve to be fitted. The bottom of the curve was constrained to zero and IC50 values were determined. IC50 values are expressed relative to that for PMB in the same experiment. Where multiple determinations have been made, median values are presented.

Data set [1] is described as follows: Kidney drug level after subcutaneous dose in mouse. The format is in vivo. The following applies: mouse, in vivo; mice, 17.2 mg/kg free base sc, 4 h; read-out: 4 hr kidney level. Here is the method:
Four hours after dosing the animals were euthanised and kidneys removed, trimmed of fat and connective tissue, weighed and immediately snap-frozen. After thawing at room temperature, pairs of kidneys from each animal were placed in 2 mL conical tubes containing pre-weighed ceria-stabilised zirconium oxide beads. […] After 10 min. centrifugation at 13,000 rpm and 6° C., 200 μl of the supernatants were transferred into glass inserts and analysed by LC-MS-MS.

For a further data set, the system named is E. coli CA58. The format is cell-based. As for the experimental part:
(§1) The inoculum was prepared by making a direct suspension of isolated colonies (selected from an 18-24 hour Mueller-Hinton agar plate) adjusted to the 0.5 McFarland standard. […] The assays were performed in duplicate. […] Several of the compounds were subjected to multiple tests, and where this is the case, the MIC presented is the median value obtained. The MIC values are quoted in μg/mL.

The next data set relates to K. pneumoniae CA64. The format is cell-based. Here is the method: as §1
The next data set deals with P. aeruginosa CCUG 59347. It is filed as cell-based. As for the experimental part:
as §1

The subject of a further data set is E. coli ATCC 25922. The format is cell-based. Here is the method: (§2) The inoculum was prepared by making a direct suspension of isolated colonies (selected from an 18-24 hour Mueller-Hinton agar plate) adjusted to the 0.5 McFarland standard. […] The assays were performed in duplicate. […] The MIC values are quoted in μg/mL.
In a further data set the test system is K. pneumoniae ATCC 13822. It is filed as cell-based. Here is the method: as §2
Another data set deals with P. aeruginosa ATCC 27853. It is filed as cell-based. As for the experimental part: as §2
Where [2] appears, read: cation-adjusted Mueller-Hinton Broth, 18-20 h, 35° C.

≈ marks a conversion by molar mass, not a printed value. Like-named read-outs stand apart in the source and are kept apart here. Where a SMILES comes first, the peptide text is derived from it. Bridges are numbered along the chain shown (N, C = ends). [ ]: non-standard residue; d: D form. The star is where a group is joined. X21 = NC[C@H](CC(=O)*)c1cc(Cl)cc(Cl)c1; X22 = CC(C)Cc1cccc([C@H](CN)CC(=O)*)c1; X9 = CC(C)c1cccc([C@H](CN)CC(=O)*)c1; X19 = NC[C@@H](CC(=O)*)c1cccc(Br)c1; dNle = CCCC[C@@H](N)C(=O)O; Dab = NCC[C@H](N)C(=O)O; Abu = CC[C@H](N)C(=O)O; Dap = NC[C@H](N)C(=O)O

On to `CC[C@@H]1NC(=O)[C@@H](Cc2ccccc2)NC(=O)[C@H](CCN)NC(=O)[C@@H](NC(=O)[C@H](CN)NC(=O)[C@@H](NC(=O)C[C@@H](CN)c2cccc(C(C)C)c2)[C@@H](C)O)CCNC(=O)[C@H]([C@@H](C)O)NC(=O)[C@H](CCN)NC(=O)[C@H](CCN)NC1=O` [Example 18] (X9-T[Dap][Dab][Dab][dF][Abu][Dab][Dab]T; lactam 3-C), for which the “HK-2 rel to PMB” value with HK-2 cells is reported as 32.8. Also, in data set [1], the tissue level at time at 4 h is 535000 ng/g. Besides, the “MIC E. coli CA58” value in the data set with E. coli CA58 (setting [2]) is 16 mg/L (≈ 14.2 µM). Moreover, in the data set with K. pneumoniae CA64 (setting [2]), the “MIC K. pneumoniae CA64” value came to 8 mg/L (≈ 7.12 µM). Also, the “MIC P. aeruginosa CCUG 59347” value in the data set with P. aeruginosa CCUG 59347 (setting [2]) was determined as 0.25 mg/L (≈ 0.222 µM). The “MIC E. coli ATCC 25922” value in the data set on E. coli ATCC 25922 (setting [2]) was found to be 0.25 mg/L (≈ 0.222 µM). Besides, the “MIC K. pneumoniae ATCC 13822” value in the data set with K. pneumoniae ATCC 13822 (setting [2]) was found to be 0.25 mg/L (≈ 0.222 µM). For the same molecule, the “MIC P. aeruginosa ATCC 27853” value in the data set on P. aeruginosa ATCC 27853 (setting [2]) came to 0.25 mg/L (≈ 0.222 µM).

Consider `CC[C@@H]1NC(=O)[C@@H](CC(C)C)NC(=O)[C@H](CCN)NC(=O)[C@@H](NC(=O)[C@H](CN)NC(=O)[C@@H](NC(=O)C[C@@H](CN)c2cccc(CC(C)C)c2)[C@@H](C)O)CCNC(=O)[C@H]([C@@H](C)O)NC(=O)[C@H](CCN)NC(=O)[C@H](CCN)NC1=O` [Example 27, (R)-4-amino-3-(3- isobutylphenyl)butanoyl- Thr- Dap- Cyclo[Dab-Dab-DLeu- Abu-Dab-Dab-Thr]] (X22-T[Dap][Dab][Dab][dL][Abu][Dab][Dab]T; lactam 3-C), for which the “MIC E. coli CA58” value against E. coli CA58 (CA58) turned out to be 16 mg/L (≈ 14.5 µM). Besides, the “MIC K. pneumoniae CA64” value with K. pneumoniae CA64 (CA64) was 2 mg/L (≈ 1.81 µM). The “MIC P. aeruginosa CCUG 59347” value in the data set on P. aeruginosa CCUG 59347 (CCUG 59347) was found to be 0.5 mg/L (≈ 0.453 µM). The “MIC E. coli ATCC 25922” value against E. coli ATCC 25922 (ATCC 25922) was 0.25 mg/L (≈ 0.226 µM). Moreover, the “MIC K. pneumoniae ATCC 13822” value with K. pneumoniae ATCC 13822 (ATCC 13822) came to 0.25 mg/L (≈ 0.226 µM). Also, the “MIC P. aeruginosa ATCC 27853” value against P. aeruginosa ATCC 27853 (ATCC 27853) is 0.5 mg/L (≈ 0.453 µM).

In the case of `CCCC[C@H]1NC(=O)[C@H](CCN)NC(=O)[C@@H](NC(=O)[C@H](CN)NC(=O)[C@@H](NC(=O)C[C@@H](CN)c2cc(Cl)cc(Cl)c2)[C@@H](C)O)CCNC(=O)[C@H]([C@@H](C)O)NC(=O)[C@H](CCN)NC(=O)[C@H](CCN)NC(=O)[C@H](CC)NC1=O` [Example 29, (R)-4-amino-3-(3,5- dichlorophenyl)butanoyl- Thr-Dap- Cyclo[Dab-Dab- DnorLeu-Abu-Dab- Dab-Thr]] (X21-T[Dap][Dab][Dab][dNle][Abu][Dab][Dab]T; lactam 3-C), the “MIC E. coli CA58” value against E. coli CA58 (setting [2]) was determined as 16 mg/L (≈ 14.3 µM). In addition, the “MIC K. pneumoniae CA64” value in the data set with K. pneumoniae CA64 (setting [2]) came out at 8 mg/L (≈ 7.16 µM). Also, in the data set with P. aeruginosa CCUG 59347 (setting [2]), the “MIC P. aeruginosa CCUG 59347” value was 0.5 mg/L (≈ 0.448 µM). Moreover, the “MIC E. coli ATCC 25922” value in the data set on E. coli ATCC 25922 (setting [2]) turned out to be 0.25 mg/L (≈ 0.224 µM). The “MIC K. pneumoniae ATCC 13822” value against K. pneumoniae ATCC 13822 (setting [2]) is 0.25 mg/L (≈ 0.224 µM). For the same molecule, the “MIC P. aeruginosa ATCC 27853” value against P. aeruginosa ATCC 27853 (setting [2]) is 0.25 mg/L (≈ 0.224 µM).

As for `CC[C@@H]1NC(=O)[C@@H](CC(C)C)NC(=O)[C@H](CCN)NC(=O)[C@@H](NC(=O)[C@H](CN)NC(=O)[C@@H](NC(=O)C[C@H](CN)c2cccc(Br)c2)[C@@H](C)O)CCNC(=O)[C@H]([C@@H](C)O)NC(=O)[C@H](CCN)NC(=O)[C@H](CCN)NC1=O` [Example 32, (S)-4-amino-3-(3- bromophenyl)butanoyl- Thr-Dap-Cyclo[Dab- Dab-DLeu-Abu-Dab- Dab-Thr]] (X19-T[Dap][Dab][Dab][dL][Abu][Dab][Dab]T; lactam 3-C), the “MIC E. coli CA58” value against E. coli CA58 (setting [2]) worked out at 32 mg/L (≈ 28.4 µM). Moreover, the “MIC K. pneumoniae CA64” value with K. pneumoniae CA64 (setting [2]) was 32 mg/L (≈ 28.4 µM). In addition, the “MIC P. aeruginosa CCUG 59347” value in the data set with P. aeruginosa CCUG 59347 (setting [2]) was found to be 0.5 mg/L (≈ 0.444 µM). In the data set with E. coli ATCC 25922 (setting [2]), the “MIC E. coli ATCC 25922” value was found to be 0.25 mg/L (≈ 0.222 µM). Besides, the “MIC K. pneumoniae ATCC 13822” value in the data set on K. pneumoniae ATCC 13822 (setting [2]) came to 0.5 mg/L (≈ 0.444 µM). Moreover, the “MIC P. aeruginosa ATCC 27853” value in the data set with P. aeruginosa ATCC 27853 (setting [2]) is 0.5 mg/L (≈ 0.444 µM).
